In patent US20230293535A1, “ERBB/BTK INHIBITORS” (Dizal (Jiangsu) Pharmaceutical Co., Ltd., priority 2018, published 2023):
pIC50: −log10 of the molar value.

Key:
Assay type in all cases: cell-based
TMD-8 cells = assay: BTK (wt) cell proliferation, TMD-8 (CellTiter-Glo, 72 h); settings: Homo sapiens, TMD8, 72 h, TMD-8 cells, 72 h, CellTiter-Glo; read-out: BTK WT TMD-8 GI50;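 also: viable cells quantified by ATP-based luminescence, proliferation expressed as percent of DMSO control after subtracting a time-zero baseline plate read at dosing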
WT EGFR cell line A-431 = assay: Cell proliferation, WT EGFR A431 (CellTiter-Glo, 72 h); settings: Homo sapiens, A-431, 72 h, A431, 72 h proliferation; read-out: EGFR WT A431 GI50;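 also: proliferation from a luminescent ATP viability signal, expressed as 100 × (treated minus time-zero plate) over (DMSO control minus time-zero plate), cells grown with 10% FBS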
[1] = molecular target: T1, human Her2 exon 20 insertion mutation YVMA (Homo sapiens, UniProt P04626, INS775YVMA); assay: Her2 Exon 20 YVMA insertion cellular phosphorylation inhibition (MSD p-Her2 Y1248/total Her2); settings: Her2 YVMAins cells, 4 h compound;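 also: lentivirally transduced NIH-3T3 cells in 1% FBS medium, electrochemiluminescent MSD read-out, graded compound concentrations at 37 °C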
T1 construct: expressed in transfected cells; host or cells: NIH-3T3, lentiviral transduction, puromycin selection

Ri-1 cells = assay: BTK (wt) cell proliferation, Ri-1 (CellTiter-Glo, 72 h); settings: Ri-1, 72 h, Ri-1 cells, 72 h, CellTiter-Glo; read-out: BTK WT Ri-1 GI50;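 also: viable cells quantified as cellular ATP luminescence, proliferation normalized to a time-zero plate and the DMSO control, compounds tested across a dilution series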
Ba/F3 EGFR ASV ins cells = assay: Cell proliferation, Ba/F3 EGFR ASV ins (CellTiter-Glo, 72 h); settings: Ba/F3 EGFR, 72 h, Ba/F3 EGFR ASV ins, 72 h proliferation; read-out: EGFR Exon20 ASV insertion GI50;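 also: IL3-independent Ba/F3 cells transduced with EGFR V769_D770insASV, cellular ATP luminescence after compound exposure, growth relative to DMSO control with the day-0 baseline reading subtracted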
[2] = molecular target: T2, human EGFR exon 20 H773_V774insNPH (Homo sapiens, UniProt P00533, INS773NPH); assay: EGFR Exon20 NPH insertion cellular phosphorylation inhibition (MSD pEGFR Y1068/total EGFR); settings: Ba/F3 EGFR NPH ins cells, 4 h compound, p-EGFR(Y1068)/total EGFR;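 also: IL3-independent Ba/F3 cells with constitutively phosphorylated EGFR, compound exposure at 37 °C under 5% CO2, electrochemiluminescent MSD measurement of the p-EGFR to total EGFR ratio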
T2 construct: host or cells: Ba/F3

DB cells = assay: BTK (wt) cell proliferation, DB (CellTiter-Glo, 72 h); settings: Homo sapiens, DB, DB cells, CellTiter-Glo, read-out: Non-BCR activated DB GI50;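 also: DB cells in 384-well plates given a dilution series of compound, viable cells read by ATP luminescence, growth expressed versus DMSO control after subtracting a time-zero plate reading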
[3] = molecular target: T3, human EGFR exon 20 V769_D770insASV (Homo sapiens, UniProt P00533, INS769ASV); assay: EGFR Exon20 ASV insertion cellular phosphorylation inhibition (MSD pEGFR Y1068/total EGFR); settings: Ba/F3 EGFR ASV ins cells, 4 h compound, p-EGFR(Y1068)/total EGFR;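 also: electrochemiluminescent readout on an MSD SECTOR Imager, IL3-independent transduced cells in medium with 1% FBS, compound concentration series at 37 °C and 5% CO2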
T3 construct: expressed in transfected cells; host or cells: Ba/F3 (DSMZ ACC-300), lentiviral transduction, puromycin selection, IL3 depletion

EGFR L858R&T790M = molecular target: T4, EGFR L858R&T790M (Homo sapiens, UniProt P00533, L858R/T790M); assay: EGFR L858R and T790M cellular phosphorylation inhibition in NCI-H1975 (MSD); settings: NCI-H1975 cells, 4 h compound, p-EGFR(Y1068)/total EGFR; read-out: EGFR L858R and T790M mutation IC50;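 also: phosphorylated and total EGFR detected by electrochemiluminescence, cells exposed to compound in medium containing 1% FBS at 37 °C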
T4 construct: host or cells: NCI-H1975

[4] = system: Her2 exon 20 insertion YVMA transduced NIH-3T3 cell line; assay: Cell proliferation, Her2 YVMAins NIH-3T3 (CellTiter-Glo, 72 h); settings: Mus musculus, NIH3T3, 72 h, Her2 YVMAins cells, 72 h proliferation; read-out: Her2 Exon 20 YVMA insertion GI50;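 also: viable cells quantified by ATP luminescence, growth over a day-zero baseline plate expressed as percent of DMSO control growth, compound dilution series in 10% FBS medium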
Ba/F3 EGFR NPH ins cells = assay: Cell proliferation, Ba/F3 EGFR NPH ins (CellTiter-Glo, 72 h); settings: Ba/F3 EGFR, 72 h, Ba/F3 EGFR NPH ins, 72 h proliferation; read-out: EGFR Exon20 NPH insertion GI50;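 also: IL3-independent cells carrying constitutively phosphorylated EGFR, compound dilution series, viable cells quantified by ATP luminescence, growth relative to DMSO wells after subtracting pre-dosing (day 0) baseline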
WT EGFR = molecular target: T5, WT EGFR (Homo sapiens, UniProt P00533); assay: WT EGFR cellular phosphorylation inhibition in A-431 (hEGF stimulated, MSD); settings: A431 cells, 4 h compound, then 100 ng/ml hEGF 10 min;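 also: electrochemiluminescence read-out of EGFR Tyr1068 phosphorylation expressed as ratio to total EGFR, cells kept in medium with 1% FBS, compounds tested as a concentration series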
T5 construct: host or cells: A-431
Method: One day before the test, WT or mutant cells were seeded in 96 well plates at appropriate concentrations with corresponding growth media supplemented with 1% FBS, and incubated overnight. The next day, tested compounds at a series of concentrations were added into each individual well of the plates, and the plates were incubated for 4 h at 37° C. with 5% CO2.
The EGFR (Y1068) phosphorylation level (activity) of cells in each well were then measured with MSD kit named “MULTI-SPOT®96 4-Spot HB Prototype EGFR Triplex [sequence]: pEGFR(Tyr1068),pEGFR(Tyr1173), Total EGFR” according to the manufacturer’s instruction (MESO SCALE DISCOVERY, Cat# N45ZB-1). The assay is an electrochemiluminescent method for determining both phosphorylated and total EGFR of cells with an MSD SECTOR® Imager and the ratio of p-EGFR/total EGFR can be generated by the machine. The Her2 (Y1248) phosphorylation level (activity) of cells in each well were measured with MSD Kit named “Phospho-ErbB2 (Tyr1248) Assay Whole Cell Lysate Kit” according to the manufacturer’s instruction (MESO SCALE DISCOVERY, Cat# K151CLD-3). The assay is an electrochemiluminescent method (MESO SCALE DISCOVERY) for determining both phosphorylated and total Her2 of cells with an MSD SECTOR® Imager and then the ratio of p-Her2/total Her2 can be generated by the machine.

OCI-LY-10 cells = assay: BTK (wt) cell proliferation, OCI-LY-10 (CellTiter-Glo, 72 h); settings: Homo sapiens, OCI-Ly10, 72 h, OCI-LY-10 cells, 72 h, CellTiter-Glo; read-out: BTK WT OCI-LY-10 GI50;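 also: viable cells quantified via cellular ATP luminescence, proliferation given as percent of DMSO control after subtracting a duplicate plate read at time of dosing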
Method: OCI-LY-10 at 3,750 cells/well, TMD-8 and Ri-1 at 2,000 cells/well, and DB at 1,250 cells/well, respectively, were sorted into 384-well plates in RPMI1640 medium with 10% FBS. After overnight incubation, all cells were incubated with compound at a series of concentrations. Meanwhile, a duplicated plate of each cell line was prepared for measuring G0 value. The dosed plates were further incubated for 72 hours and the number of viable cells was measured by CellTiter-Glo® Luminescent Cell Viability Assay (Promega), a luminescent method for determining the number of viable cells through measurement of cellular ATP concentration using Envision plate reader (PerkinElmer). The percentage of proliferation was calculated as: % Proliferation = 100 × (G3 value of sample well - G0 value)/(G3 value of DMSO control - G0 value).

[5] = system: NCI-H1975 EGFR L858R/T790M cells; assay: Cell proliferation, NCI-H1975 EGFR L858R/T790M (CellTiter-Glo, 72 h); settings: Homo sapiens, NCI-H1975, 72 h, NCI-H1975, 72 h proliferation; read-out: EGFR L858R and T790M mutation GI50;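 also: viable cells quantified by luciferase-based ATP luminescence, proliferation expressed relative to DMSO-treated wells (100%) after subtracting a parallel plate read at the time of dosing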

T2 sequence (P00533 with tags, fused parts or gaps INS773NPH): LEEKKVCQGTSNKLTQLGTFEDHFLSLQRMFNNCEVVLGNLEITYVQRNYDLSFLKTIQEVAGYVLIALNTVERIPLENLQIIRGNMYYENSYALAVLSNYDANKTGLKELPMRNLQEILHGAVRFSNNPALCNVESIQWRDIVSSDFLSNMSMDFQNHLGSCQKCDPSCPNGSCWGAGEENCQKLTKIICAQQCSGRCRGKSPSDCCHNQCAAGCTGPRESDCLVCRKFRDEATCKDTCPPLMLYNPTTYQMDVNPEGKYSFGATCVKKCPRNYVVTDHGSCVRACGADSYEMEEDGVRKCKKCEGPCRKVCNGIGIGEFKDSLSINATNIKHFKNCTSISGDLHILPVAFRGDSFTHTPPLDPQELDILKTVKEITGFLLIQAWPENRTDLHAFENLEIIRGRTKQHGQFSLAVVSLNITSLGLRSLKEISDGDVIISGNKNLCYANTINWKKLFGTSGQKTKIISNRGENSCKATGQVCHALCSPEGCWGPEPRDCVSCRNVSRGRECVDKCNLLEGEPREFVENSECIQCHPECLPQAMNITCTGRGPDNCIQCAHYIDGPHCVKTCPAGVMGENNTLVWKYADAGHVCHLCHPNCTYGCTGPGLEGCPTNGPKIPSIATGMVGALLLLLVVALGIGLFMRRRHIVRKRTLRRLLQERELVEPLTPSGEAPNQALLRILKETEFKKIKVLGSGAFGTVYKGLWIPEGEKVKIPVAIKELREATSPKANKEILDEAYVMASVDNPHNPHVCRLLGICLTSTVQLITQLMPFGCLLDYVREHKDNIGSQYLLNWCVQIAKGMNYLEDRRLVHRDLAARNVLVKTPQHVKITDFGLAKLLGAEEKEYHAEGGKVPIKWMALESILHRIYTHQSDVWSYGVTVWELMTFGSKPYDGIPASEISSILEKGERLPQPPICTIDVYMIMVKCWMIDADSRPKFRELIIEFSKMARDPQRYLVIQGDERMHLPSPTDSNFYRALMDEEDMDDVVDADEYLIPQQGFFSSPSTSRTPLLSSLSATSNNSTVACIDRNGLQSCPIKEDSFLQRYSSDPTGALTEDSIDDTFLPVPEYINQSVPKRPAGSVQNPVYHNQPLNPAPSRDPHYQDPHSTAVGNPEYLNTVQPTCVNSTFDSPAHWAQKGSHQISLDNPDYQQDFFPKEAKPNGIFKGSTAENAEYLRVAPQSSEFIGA
T4 sequence (P00533 25-1210 T790M/L858R): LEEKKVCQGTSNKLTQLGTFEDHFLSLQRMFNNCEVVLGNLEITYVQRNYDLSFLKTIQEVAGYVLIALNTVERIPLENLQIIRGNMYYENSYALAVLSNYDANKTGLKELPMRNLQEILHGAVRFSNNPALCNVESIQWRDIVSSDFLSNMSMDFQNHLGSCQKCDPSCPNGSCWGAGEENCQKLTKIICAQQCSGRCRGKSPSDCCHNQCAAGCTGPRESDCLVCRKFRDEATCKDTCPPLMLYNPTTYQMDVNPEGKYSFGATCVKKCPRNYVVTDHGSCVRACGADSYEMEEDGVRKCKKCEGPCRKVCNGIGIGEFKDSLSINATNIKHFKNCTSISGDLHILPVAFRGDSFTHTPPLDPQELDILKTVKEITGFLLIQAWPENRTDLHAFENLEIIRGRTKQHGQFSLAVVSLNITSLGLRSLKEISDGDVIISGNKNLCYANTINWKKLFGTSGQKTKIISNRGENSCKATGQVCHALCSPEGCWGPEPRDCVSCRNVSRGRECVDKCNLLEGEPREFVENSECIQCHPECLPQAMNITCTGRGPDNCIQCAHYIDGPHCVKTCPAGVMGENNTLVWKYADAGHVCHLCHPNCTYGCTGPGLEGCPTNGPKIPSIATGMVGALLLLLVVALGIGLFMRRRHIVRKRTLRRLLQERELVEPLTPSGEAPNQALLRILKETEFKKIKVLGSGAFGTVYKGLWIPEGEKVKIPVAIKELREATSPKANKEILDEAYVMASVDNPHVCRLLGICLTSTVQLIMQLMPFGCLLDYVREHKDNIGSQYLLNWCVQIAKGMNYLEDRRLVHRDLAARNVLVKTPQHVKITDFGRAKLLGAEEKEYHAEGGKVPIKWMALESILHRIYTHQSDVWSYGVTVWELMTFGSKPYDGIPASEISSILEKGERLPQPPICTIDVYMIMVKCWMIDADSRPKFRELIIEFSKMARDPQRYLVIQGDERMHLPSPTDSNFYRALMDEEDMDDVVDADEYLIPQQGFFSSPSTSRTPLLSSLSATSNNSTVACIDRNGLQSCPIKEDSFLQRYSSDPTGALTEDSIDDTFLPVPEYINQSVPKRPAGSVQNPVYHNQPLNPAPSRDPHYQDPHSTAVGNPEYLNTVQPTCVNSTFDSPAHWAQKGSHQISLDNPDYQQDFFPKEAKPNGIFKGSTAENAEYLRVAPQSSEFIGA
T1 sequence (P04626 with tags, fused parts or gaps INS775YVMA): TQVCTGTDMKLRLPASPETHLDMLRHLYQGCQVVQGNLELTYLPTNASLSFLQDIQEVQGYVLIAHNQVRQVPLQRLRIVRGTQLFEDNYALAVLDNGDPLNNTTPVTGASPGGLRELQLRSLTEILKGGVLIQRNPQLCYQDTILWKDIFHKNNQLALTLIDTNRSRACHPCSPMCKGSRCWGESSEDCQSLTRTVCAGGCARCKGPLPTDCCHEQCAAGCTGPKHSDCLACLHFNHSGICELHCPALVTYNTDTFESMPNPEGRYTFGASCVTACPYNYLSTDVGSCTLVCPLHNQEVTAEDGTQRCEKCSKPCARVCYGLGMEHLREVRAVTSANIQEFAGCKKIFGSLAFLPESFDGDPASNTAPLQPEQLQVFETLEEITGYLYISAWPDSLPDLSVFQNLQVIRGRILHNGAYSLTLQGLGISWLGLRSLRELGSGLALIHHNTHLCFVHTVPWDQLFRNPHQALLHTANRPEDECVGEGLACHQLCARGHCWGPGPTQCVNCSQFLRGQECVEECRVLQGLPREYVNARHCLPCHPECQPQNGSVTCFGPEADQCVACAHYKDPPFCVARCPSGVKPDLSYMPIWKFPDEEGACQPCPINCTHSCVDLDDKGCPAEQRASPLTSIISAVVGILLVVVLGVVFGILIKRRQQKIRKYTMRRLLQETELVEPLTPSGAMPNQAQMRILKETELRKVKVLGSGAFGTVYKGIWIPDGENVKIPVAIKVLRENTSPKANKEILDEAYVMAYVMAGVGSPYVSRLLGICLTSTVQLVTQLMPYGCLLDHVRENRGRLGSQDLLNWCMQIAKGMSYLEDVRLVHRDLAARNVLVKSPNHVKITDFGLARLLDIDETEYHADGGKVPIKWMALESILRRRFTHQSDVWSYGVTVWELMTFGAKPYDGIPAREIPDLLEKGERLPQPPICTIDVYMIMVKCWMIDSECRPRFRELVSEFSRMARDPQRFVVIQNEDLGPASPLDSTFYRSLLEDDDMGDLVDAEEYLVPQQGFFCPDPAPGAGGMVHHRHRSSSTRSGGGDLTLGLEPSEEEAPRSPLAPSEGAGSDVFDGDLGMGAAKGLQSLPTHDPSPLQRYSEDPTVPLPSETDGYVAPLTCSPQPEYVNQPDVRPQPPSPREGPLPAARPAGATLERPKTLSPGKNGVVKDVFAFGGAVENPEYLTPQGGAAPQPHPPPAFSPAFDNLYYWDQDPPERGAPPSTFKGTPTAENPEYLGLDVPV
T3 sequence (P00533 with tags, fused parts or gaps INS769ASV): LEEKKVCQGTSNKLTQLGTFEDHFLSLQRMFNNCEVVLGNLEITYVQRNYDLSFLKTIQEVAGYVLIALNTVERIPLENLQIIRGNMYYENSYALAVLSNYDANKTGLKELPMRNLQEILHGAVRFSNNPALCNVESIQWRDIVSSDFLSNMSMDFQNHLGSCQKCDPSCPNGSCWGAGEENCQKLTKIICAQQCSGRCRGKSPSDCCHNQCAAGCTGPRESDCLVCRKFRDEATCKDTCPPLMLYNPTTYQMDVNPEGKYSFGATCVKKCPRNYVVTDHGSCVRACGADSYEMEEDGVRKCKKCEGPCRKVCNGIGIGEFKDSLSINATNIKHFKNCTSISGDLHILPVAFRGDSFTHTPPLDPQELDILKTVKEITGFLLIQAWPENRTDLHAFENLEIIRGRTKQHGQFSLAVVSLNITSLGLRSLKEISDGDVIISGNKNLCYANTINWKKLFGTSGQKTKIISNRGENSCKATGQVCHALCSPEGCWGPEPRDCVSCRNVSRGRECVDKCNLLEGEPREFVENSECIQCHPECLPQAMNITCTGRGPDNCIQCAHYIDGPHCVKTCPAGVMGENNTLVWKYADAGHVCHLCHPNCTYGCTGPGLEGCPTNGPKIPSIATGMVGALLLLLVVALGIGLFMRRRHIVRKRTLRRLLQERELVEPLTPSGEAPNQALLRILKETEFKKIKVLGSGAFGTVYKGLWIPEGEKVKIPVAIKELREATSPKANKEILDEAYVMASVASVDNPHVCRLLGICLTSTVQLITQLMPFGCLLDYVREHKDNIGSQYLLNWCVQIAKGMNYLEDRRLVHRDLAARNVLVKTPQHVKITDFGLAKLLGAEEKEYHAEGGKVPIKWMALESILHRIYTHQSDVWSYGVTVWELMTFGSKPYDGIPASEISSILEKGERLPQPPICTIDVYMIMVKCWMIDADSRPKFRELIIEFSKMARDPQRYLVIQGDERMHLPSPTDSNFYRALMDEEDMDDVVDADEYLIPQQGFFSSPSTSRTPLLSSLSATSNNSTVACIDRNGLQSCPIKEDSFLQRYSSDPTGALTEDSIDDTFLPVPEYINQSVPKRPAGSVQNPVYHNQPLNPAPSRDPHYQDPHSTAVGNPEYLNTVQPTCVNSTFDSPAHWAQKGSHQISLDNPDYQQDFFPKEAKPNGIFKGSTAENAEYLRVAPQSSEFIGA

SMILES: C=CC(=O)Nc1cc(Nc2ncnc(Nc3cccnc3C(C)(C)O)n2)c(OC)cc1N(C)CCN(C)C [Compound 8, N-(2-((2-(dimethylamino)ethyl)(methyl)amino)-5-(4-(2-(2-hydroxypropan-2-yl)pyridin-3-ylamino)-1,3,5-triazin-2-ylamino)-4-methoxyphenyl)acrylamide]
- GI50 (TMD-8 cells): 1780 nM
- GI50 (WT EGFR cell line A-431): 99.8 nM
- pIC50 [1]: 7.59
- GI50 (Ri-1 cells): > 3000 nM
- GI50 (Ba/F3 EGFR ASV ins cells): 250 nM
- pIC50 [2]: 7.04
- GI50 (DB cells): > 3000 nM
- pIC50 [3]: 6.93
- pIC50 (EGFR L858R&T790M): 8.54
- GI50 [4]: 353 nM
- GI50 (Ba/F3 EGFR NPH ins cells): 258 nM
- pIC50 (WT EGFR): 7.37
- GI50 (OCI-LY-10 cells): 88 nM
- GI50 [5]: 32.4 nM

SMILES: C=CC(=O)Nc1cc(Nc2ncnc(Nc3ccc(F)c(F)c3C(C)(C)O)n2)c(OC)cc1N(C)CCN(C)C [Compound 9, N-(5-(4-(3,4-difluoro-2-(2-hydroxypropan-2-yl)phenylamino)-1,3,5-triazin-2-ylamino)-2-((2-(dimethylamino)ethyl)(methyl)amino)-4-methoxyphenyl)ac rylamide]
- GI50 (TMD-8 cells): 551 nM
- GI50 (WT EGFR cell line A-431): 83.1 nM
- pIC50 [1]: 7.86
- GI50 (Ri-1 cells): 700 nM
- GI50 (Ba/F3 EGFR ASV ins cells): 191 nM
- pIC50 [2]: 7.29
- GI50 (DB cells): > 3000 nM
- pIC50 [3]: 7.20
- pIC50 (EGFR L858R&T790M): 8.70
- GI50 [4]: 156 nM
- GI50 (Ba/F3 EGFR NPH ins cells): 180 nM
- pIC50 (WT EGFR): 6.88
- GI50 (OCI-LY-10 cells): 309 nM
- GI50 [5]: 44.6 nM

SMILES: C=CC(=O)Nc1cc(Nc2ncnc(Nc3cc(F)c(Cl)cc3C(C)(C)O)n2)c(OC)cc1N(C)CCN(C)C [Compound 12, N-(5-(4-(4-chloro-5-fluoro-2-(2-hydroxypropan-2-yl)phenylamino)-1,3,5-triazin-2-ylamino)-2-((2-(dimethylamino)ethyl)(methyl)amino)-4-methoxyphenyl)acrylamide]
- GI50 (TMD-8 cells): 34.5 nM
- GI50 (WT EGFR cell line A-431): 14.2 nM
- pIC50 [1]: 8.47
- GI50 (Ri-1 cells): 51.2 nM
- GI50 (Ba/F3 EGFR ASV ins cells): 25.3 nM
- pIC50 [2]: 7.97
- GI50 (DB cells): > 3000 nM
- pIC50 [3]: 8.19
- pIC50 (EGFR L858R&T790M): 9.52
- GI50 [4]: 24.5 nM
- GI50 (Ba/F3 EGFR NPH ins cells): 21.5 nM
- pIC50 (WT EGFR): 8.12
- GI50 (OCI-LY-10 cells): 27.8 nM
- GI50 [5]: 8.4 nM

SMILES: C=CC(=O)Nc1cc(Nc2ncnc(Nc3ccc(Cl)c(F)c3C(C)(C)O)n2)c(OC)cc1N(C)CCN(C)C [Compound 14, N-(5-(4-(4-chloro-3-fluoro-2-(2-hydroxypropan-2-yl)phenylamino)-1,3,5-triazin-2-ylamino)-2-((2-(dimethylamino)ethyl)(methyl)amino)-4-methoxyphenyl)acrylamide]
- GI50 (TMD-8 cells): 102 nM
- GI50 (WT EGFR cell line A-431): 29.1 nM
- pIC50 [1]: 7.80
- GI50 (Ri-1 cells): 136 nM
- GI50 (Ba/F3 EGFR ASV ins cells): 84.1 nM
- pIC50 [2]: 7.42
- GI50 (DB cells): > 3000 nM
- pIC50 [3]: 7.58
- pIC50 (EGFR L858R&T790M): 8.96
- GI50 [4]: 58.7 nM
- GI50 (Ba/F3 EGFR NPH ins cells): 55.4 nM
- pIC50 (WT EGFR): 7.50
- GI50 (OCI-LY-10 cells): 155 nM
- GI50 [5]: 18 nM

SMILES: C=CC(=O)Nc1cc(Nc2ncnc(Nc3cc(Cl)c(Cl)cc3C(C)(C)O)n2)c(OC)cc1N(C)CCN(C)C [Compound 15, N-(5-(4-(4,5-dichloro-2-(2-hydroxypropan-2-yl)phenylamino)-1,3,5-triazin-2-ylamino)-2-((2-(dimethylamino)ethyl)(methyl)amino)-4-methoxyphenyl)a crylamide]
- GI50 (TMD-8 cells): 2.44 nM
- GI50 (WT EGFR cell line A-431): 7.9 nM
- pIC50 [1]: 8.42
- GI50 (Ri-1 cells): 6.68 nM
- GI50 (Ba/F3 EGFR ASV ins cells): 21.1 nM
- pIC50 [2]: 7.82
- GI50 (DB cells): 1340 nM
- pIC50 [3]: 8.12
- pIC50 (EGFR L858R&T790M): 9.40
- GI50 [4]: 32.7 nM
- GI50 (Ba/F3 EGFR NPH ins cells): 32.9 nM
- pIC50 (WT EGFR): 8.09
- GI50 (OCI-LY-10 cells): 4.95 nM
- GI50 [5]: 7.4 nM
